In brackets after ≈: the same amount, converted by molar mass. Like-named read-outs stand apart in the source and are kept apart here. Residues, ends and D or L forms follow the SMILES beside them.

Assay [1] concerns Klebsiella pneumoniae (KPC, ATCC BAA-1705). The experiment in a line: microbe, parasite or virus in culture. The settings on record: ATCCBAA1705, 24 h, read-out: MIC of antibiotic.
For assay [2], the system named is Pseudomonas aeruginosa (PSA, ATCC 27883). The experiment in a line: microbe, parasite or virus in culture. The settings on record: ATCC27883, 24 h.
The subject of assay [3] is Escherichia coli (E. Coli, ATCC 25922). Kind of assay: microbe, parasite or virus in culture. To be noted: ATCC25922, 24 h.
The test system is the same in assay [4]. To be noted: Escherichia coli (ATCC 25922), antibiotic alone.
Assay [5] concerns Methicillin-resistant Staphylococcus aureus MRSA (ATCC BAA-1556). The experiment in a line: microbe, parasite or virus in culture. To be noted: ATCCBAA1556|MRSA, 24 h.
The test system of assay [6] is Pseudomonas aeruginosa (PSA, ATCC 27883). Kind of assay: Synergy checkerboard assay (FIC index). Type of assay: cell-based. To be noted: Pseudomonas aeruginosa (ATCC 27883), antibiotic alone; for MIC: ATCC27883, 24 h.
In assay [7] the test system is Klebsiella pneumoniae (KPC, ATCC BAA-1705). Kind of assay: microbe, parasite or virus in culture. The settings on record: ATCCBAA1705, 24 h.
Assay [8] shares this test system. To be noted: Klebsiella pneumoniae (ATCC BAA-1705), antibiotic alone; for MIC of antibiotics: Table 26.
For assay [9], the system named is KPC.
Assay [10] deals with Pseudomonas aeruginosa (ATCC 10145).
Assay [11] deals with PSA.
The test system of assay [12] is E. coli.
The subject of assay [13] is Klebsiella pneumoniae (KPC, ATCC BAA-1705).
For assay [14], the system named is Pseudomonas aeruginosa (ATCC BAA-1744). The settings on record: Pseudomonas aeruginosa (ATCC BAA-1744).
For assay [15], the system named is Acinetobacter baumannii (ATCC BAA-1605). To be noted: Acinetobacter baumannii (ATCC BAA-1605).
In assay [16] the test system is Escherichia coli (ATCC BAA-2452). The settings on record: Escherichia coli (ATCC BAA-2452).
Assay [17] deals with Klebsiella pneumoniae ATCC 13883. The settings on record: Klebsiella pneumonia (ATCC 13883).
The test system of assay [18] is Methicillin-resistant Staphylococcus aureus MRSA (ATCC BAA-1556).
Assay [19] relates to Pseudomonas aeruginosa (PSA, ATCC 27883).
Assay [20] relates to Escherichia coli (E. Coli, ATCC 25922).
Setting [21] is: read-out: Pseudomonas aeruginosa (ATCC 27883) MIC, Table 28, IFX-031, antibiotics alone and PHY-MIX (1:1 w/w).
[22] abbreviates: read-out: Pseudomonas aeruginosa (ATCC 27883) MIC, Table 29, [R6W4] (IFX-318), antibiotics alone and PHY-MIX (1:1 w/w).
[23] abbreviates: read-out: Pseudomonas aeruginosa (ATCC 27883) MIC, Table 30, [R5W4K] (IFX-315), antibiotics alone and PHY-MIX (1:1 w/w).
The mark [24] stands for this setting: read-out: Pseudomonas aeruginosa (ATCC 27883) MIC, Table 31, [R5W4] (IFX-301), antibiotics alone and PHY-MIX (1:1 w/w).
Where [25] appears, read: read-out: Escherichia coli (ATCC 25922) MIC, Table 28, IFX-031, antibiotics alone and PHY-MIX (1:1 w/w).
[26] abbreviates: read-out: Escherichia coli (ATCC 25922) MIC, Table 29, [R6W4] (IFX-318), antibiotics alone and PHY-MIX (1:1 w/w).
Where [27] appears, read: read-out: Escherichia coli (ATCC 25922) MIC, Table 30, [R5W4K] (IFX-315), antibiotics alone and PHY-MIX (1:1 w/w).
The mark [28] stands for this setting: read-out: Escherichia coli (ATCC 25922) MIC, Table 31, [R5W4] (IFX-301), antibiotics alone and PHY-MIX (1:1 w/w).
[29] abbreviates: read-out: Klebsiella pneumoniae (ATCC BAA-1705) MIC, Table 28, IFX-031, antibiotics alone and PHY-MIX (1:1 w/w).
The mark [30] stands for this setting: read-out: Klebsiella pneumoniae (ATCC BAA-1705) MIC, Table 29, [R6W4] (IFX-318), antibiotics alone and PHY-MIX (1:1 w/w).
[31] abbreviates: read-out: Klebsiella pneumoniae (ATCC BAA-1705) MIC, Table 30, [R5W4K] (IFX-315), antibiotics alone and PHY-MIX (1:1 w/w).
Where [32] appears, read: read-out: Klebsiella pneumoniae (ATCC BAA-1705) MIC, Table 31, [R5W4] (IFX-301), antibiotics alone and PHY-MIX (1:1 w/w).
Setting [33] is: Table 28, IFX-031, antibiotics alone and PHY-MIX (1:1 w/w).
Setting [34] is: Table 29, [R6W4] (IFX-318), antibiotics alone and PHY-MIX (1:1 w/w).
The mark [35] stands for this setting: Table 30, [R5W4K] (IFX-315), antibiotics alone and PHY-MIX (1:1 w/w).
[36] abbreviates: Table 31, [R5W4] (IFX-301), antibiotics alone and PHY-MIX (1:1 w/w).

For `NC[C@H]1O[C@H](O[C@H]2[C@H](O)[C@@H](O[C@H]3O[C@H](CO)[C@@H](O)[C@H](N)[C@H]3O)[C@H](N)C[C@@H]2N)[C@H](O)[C@@H](O)[C@@H]1O` [Kanamycin], the MIC in assay [1] is 64 µg/mL; in assay [2] (setting [21]), > 64 µg/mL; in assay [2] (setting [22]) it was > 64 µg/mL; in [2] (setting [23]) it was > 64 µg/mL; in [2] (setting [24]), > 64 µg/mL; in assay [3] (setting [25]), 32 µg/mL (≈ 66 µM). Also, the MIC in assay [3] (setting [26]) was 32 µg/mL (≈ 66 µM); in assay [3] (setting [27]), 32 µg/mL (≈ 66 µM); in assay [3] (setting [28]), 32 µg/mL (≈ 66 µM); in assay [5] (read-out: MRSA (ATCC BAA-1556) MIC, Table 28, IFX-031, antibiotics alone and PHY-MIX (1:1 w/w)), > 64 µg/mL; in assay [5] (read-out: MRSA (ATCC BAA-1556) MIC, Table 29, [R6W4] (IFX-318), antibiotics alone and PHY-MIX (1:1 w/w)), > 64 µg/mL; in assay [5] (read-out: MRSA (ATCC BAA-1556) MIC, Table 30, [R5W4K] (IFX-315), antibiotics alone and PHY-MIX (1:1 w/w)), > 64 µg/mL. Besides, the MIC was > 64 µg/mL in assay [5] (read-out: MRSA (ATCC BAA-1556) MIC, Table 31, [R5W4] (IFX-301), antibiotics alone and PHY-MIX (1:1 w/w)); 256 µg/mL in assay [6] (Table 25); 64 µg/mL (≈ 132 µM) in assay [7] (setting [29]); 64 µg/mL (≈ 132 µM) in assay [7] (setting [30]); 64 µg/mL (≈ 132 µM) in assay [7] (setting [31]); 64 µg/mL (≈ 132 µM) in assay [7] (setting [32]). For the same compound, the MIC of antibiotic in assay [4] amounted to 32 µg/mL; in assay [4] (Table 25) it was 32 µg/mL; in assay [4] (Table 26), 32 µg/mL; in [8] it was 64 µg/mL. Further, the MIC of antibiotics in [8] was 64 µg/mL.

As for `C[C@H]1COc2c(N3CCN(C)CC3)c(F)cc3c(=O)c(C(=O)O)cn1c23` [Levofloxacin], the MIC worked out at 64 µg/mL in [1]; 1 µg/mL (≈ 2.77 µM) in assay [2] (setting [21]); 1 µg/mL (≈ 2.77 µM) in assay [2] (setting [22]); 1 µg/mL (≈ 2.77 µM) in assay [2] (setting [23]); 1 µg/mL (≈ 2.77 µM) in [2] (setting [24]); 16 µg/mL (≈ 44.3 µM) in [3] (setting [25]). For the same compound, the MIC in assay [3] (setting [26]) was 64 µg/mL (≈ 177 µM); in assay [3] (setting [27]), 64 µg/mL (≈ 177 µM); in [3] (setting [28]) it was 64 µg/mL (≈ 177 µM); in assay [6] (Table 25) it was 1 µg/mL; in assay [7] (setting [29]) it was 32 µg/mL (≈ 88.6 µM); in assay [7] (setting [30]), 64 µg/mL (≈ 177 µM). Further, the MIC in assay [7] (setting [31]) and in [7] (setting [32]) was 64 µg/mL (≈ 177 µM) each time. The MIC of antibiotic in assay [4] is 64 µg/mL; in assay [4] (Table 25) it was 64 µg/mL; in assay [4] (Table 26) it was 64 µg/mL; in assay [6] (Table 26) it was 1 µg/mL; in [8] it was 64 µg/mL.

On to `N=C(N)NCCC[C@@H]1NC(=O)[C@H](CCCNC(=N)N)NC(=O)[C@H](CCCNC(=N)N)NC(=O)[C@H](CCCNC(=N)N)NC(=O)[C@H](Cc2c[nH]c3ccccc23)NC(=O)[C@H](Cc2c[nH]c3ccccc23)NC(=O)[C@H](Cc2c[nH]c3ccccc23)NC(=O)[C@H](Cc2c[nH]c3ccccc23)NC(=O)[C@H](CCCNC(=N)N)NC(=O)[C@H](CCCNC(=N)N)NC1=O` [[R6W4] IFX-301] (cyclo(RRRRRRWWWW)), for which the MIC worked out at 64 µg/mL (≈ 38.1 µM) in assay [9], 32 µg/mL (≈ 19 µM) in assay [10] (ATCC 10145), 16 µg/mL (≈ 9.51 µM) in assay [11] and 32 µg/mL (≈ 19 µM) in [12].

Take Polymyxin: the MIC in assay [9] (Table 35, Klebsiella pneumoniae (ATCC BAA-1705)) is 0.5 µg/mL; in assay [9] (Table 36, Klebsiella pneumoniae (ATCC BAA-1705)) it was 0.5 µg/mL; in assay [10] (Table 35, Pseudomonas aeruginosa (ATCC 10145)), 2 µg/mL; in [10] (Table 36, Pseudomonas aeruginosa (ATCC 10145)), 2 µg/mL; in assay [14] (Table 35), 2 µg/mL; in [14] (Table 36), 2 µg/mL. Further, the MIC in assay [15] (Table 35), in assay [15] (Table 36), in [16] (Table 35), in assay [16] (Table 36), in [17] (Table 35) and in assay [17] (Table 36) was 1 µg/mL in each case. The MIC in assay [11] (Table 35, P. aeruginosa ATCC 27883) is 1 µg/mL; in assay [11] (Table 36, P. aeruginosa ATCC 27883), 1 µg/mL; in [12] (Table 35, E. coli ATCC 25922), 2 µg/mL; in [12] (Table 36, E. coli ATCC 25922), 2 µg/mL. Further, the “Klebsiella pneumoniae (ATCC BAA-1705) MIC” value in assay [13] (setting [33]), in assay [13] (setting [34]), in [13] (setting [35]) and in assay [13] (setting [36]) was 1 µg/mL throughout. Moreover, the MIC of antibiotic in [4] was 2 µg/mL; in assay [4] (Table 25), 2 µg/mL; in assay [4] (Table 26) it was 2 µg/mL; in assay [6] (Table 25), 1 µg/mL; in [6] (Table 26) it was 1 µg/mL; in assay [8] it was 1 µg/mL. In addition, in assay [8] (Table 25), the MIC of antibiotic was 1 µg/mL. Besides, the “Polymyxin MIC” value came to 2 µg/mL in assay [4] (Table 27) and 0.5 µg/mL in assay [8] (Table 27). Also, in assay [6] (Table 27), the antibiotic MIC was 1 µg/mL. Moreover, the “MRSA (ATCC BAA-1556) MIC” value in assay [18] (setting [33]), in [18] (setting [34]), in assay [18] (setting [35]) and in assay [18] (setting [36]) was 64 µg/mL throughout. For the same compound, the “Pseudomonas aeruginosa (ATCC 27883) MIC” value in [19] (setting [33]), in assay [19] (setting [34]), in [19] (setting [35]) and in assay [19] (setting [36]) was 1 µg/mL throughout. Also, the MIC of antibiotics in [8] came to 1 µg/mL. Further, the “Escherichia coli (ATCC 25922) MIC” value in [20] (setting [33]), in assay [20] (setting [34]), in assay [20] (setting [35]) and in assay [20] (setting [36]) was 2 µg/mL throughout.

(Values after US20220289794A1, “SYNTHETIC ANTIMICROBIAL PEPTIDES” (priority 2019, published 2022).)
